Measured values taken from patent publication US10201624B2, “Triazine based radiopharmaceuticals and radioimaging agents” (Molecular Insight Pharmaceuticals, Inc., priority 2013, dated 2019).

Legend:
[1] = tested on: LNCaP cell xenografts; test: tissue distribution of ^177Lu-labeled compounds in mice bearing LNCaP xenografts; type: in vivo; conditions: for concentration in kidneys compared with tumor: 4 hours post administration; for concentration in LNCap tumor: 24 hours and 96 hours post administration compared with 4 hours; for clearance from the kidneys: over a period of 96 hours
Protocol: All animal studies were approved by the Institute for Animal Care and Use Committee in accordance with the guidelines set forth by the U.S. Public Health Service Policy on Humane Care and Use of Laboratory Animals. Mice were housed under standard conditions in approved facilities with 12 hour light/dark cycles and given food and water ad libitum. Male athymic NCr-nu/nu mice were purchased from Taconic. For inoculation in mice, LNCaP cells were resuspended at 10^7 cells/ml in a 1:1 mixture of cell culture medium:Matrigel (BD Biosciences). Each mouse was injected in the right flank with 0.25 ml of the cell suspension. Mice were used for tissue distribution studies when the tumors reached approximately 100-400 mm^3.
A quantitative analysis of the tissue distribution of ^177Lu-labeled compounds was performed in separate groups of male NCr-nu/nu mice bearing LNCaP cell xenografts. The compounds were administered via the tail vein as a bolus injection (approximately 10 μCi/mouse) in a constant volume of 0.05 mL. The animals (n=5/time point) were euthanized by asphyxiation with carbon dioxide at the indicated time points after injection. Tissues, for example, blood, heart, lungs, liver, spleen, kidneys, stomach, large and small intestines (with contents), testes, skeletal muscle, bone, brain, adipose, and tumor were dissected, excised, weighed wet, and counted in an automated γ-counter. Tissue time-radioactivity levels were expressed as percent injected dose per gram of tissue (% ID/g).

[2] = tested on: LNCaP xenografts; test: in vivo efficacy: inhibition of LNCaP tumor growth; set-up: species or system mice; conditions: 450 μCi per mouse, intravenous
Protocol: FIG. 5 illustrates the in vivo efficacy of an exemplary lutetium complex of the invention to inhibit the growth of LNCaP tumors in mice. Arrest of tumor growth was determined by administering 450 μCi of the lutetium complex of (2S)-2-(3-((1S)-1-caroxy-5-(11-(4-(4-(dimethylamino)-6-((4-((1,4,7,10-tetrakis(carboxymethyl)-1,4,7,10-tetraazacyclododecan-2-yl)methyl)phenyl)amino)-1,3,5-triazin-2-yl)piperazin-1-yl)undecanamido)pentyl)ureido)pentanedioic acid to each mouse in the study group. Mice in the control group were administered saline. Tumor volumes in the test and control group of mice were measured twice weekly.
All animal studies were approved by the Institute for Animal Care and Use Committee in accordance with the guidelines set forth by the U.S. Public Health Service Policy on Humane Care and Use of Laboratory Animals. Mice were housed under standard conditions in approved facilities with 12 hour light/dark cycles and given food and water ad libitum. Male athymic NCr-nu/nu mice were purchased from Taconic. […]
Mice bearing LNCaP xenografts having an average volume of ˜100-500 mm^3, were randomly assigned to a control group or a treatment group (n=10 mice per group). […] Tumor dimensions were measured twice weekly with digital calipers and tumor volumes were calculated using the formula ([…]Π×width^2×length)/6. […]

[3] = molecular target: T1, PSMA (Homo sapiens, UniProt Q04609); test: ^68Ga-PSMA PET/CT imaging of a subject having prostate cancer; type: in vivo
T1 construct: from tissue; host or cells: in vivo: prostate tissue, lymph node and bone lesions of a subject having prostate cancer
Protocol: According to another embodiment of the invention, radiometal complexes of Formula I and Formula II compounds were used for imaging prostate cancer and accompanying metastasis in a subject. Briefly, ^68Ga was complexed to (2S)-2-(3-((1S)-1-carboxy-5-(11-(4-(4-(dimethylamino)-6-((4-((1,4,7,10-tetrakis(carboxymethyl)-1,4,7,10-tetraazacyclododecan-2-yl)methyl)phenyl)amino)-1,3,5-triazin-2-yl)piperazin-1-yl)undecanamido)pentyl)ureido)pentanedioic acid and the resultant complex was administered to a subject having prostate cancer. The subject was then imaged at 1 hour and 3 hours post administration of the inventive ^68Ga complex using, for example, a ^68Ga-PSMA PET/CT scanner. […] Overall, this imaging study supports the use of radiometal complexes of the inventive compounds as suitable agents for radioimaging of cancers, such as prostate cancer.

[4] = ^177Lu complex, LNCap xenograft mice, tail vein bolus
[5] = extended study, 3 weeks post administration
[6] = extended study, between 24 hours to 96 hours

T1 sequence (Q04609 whole entry): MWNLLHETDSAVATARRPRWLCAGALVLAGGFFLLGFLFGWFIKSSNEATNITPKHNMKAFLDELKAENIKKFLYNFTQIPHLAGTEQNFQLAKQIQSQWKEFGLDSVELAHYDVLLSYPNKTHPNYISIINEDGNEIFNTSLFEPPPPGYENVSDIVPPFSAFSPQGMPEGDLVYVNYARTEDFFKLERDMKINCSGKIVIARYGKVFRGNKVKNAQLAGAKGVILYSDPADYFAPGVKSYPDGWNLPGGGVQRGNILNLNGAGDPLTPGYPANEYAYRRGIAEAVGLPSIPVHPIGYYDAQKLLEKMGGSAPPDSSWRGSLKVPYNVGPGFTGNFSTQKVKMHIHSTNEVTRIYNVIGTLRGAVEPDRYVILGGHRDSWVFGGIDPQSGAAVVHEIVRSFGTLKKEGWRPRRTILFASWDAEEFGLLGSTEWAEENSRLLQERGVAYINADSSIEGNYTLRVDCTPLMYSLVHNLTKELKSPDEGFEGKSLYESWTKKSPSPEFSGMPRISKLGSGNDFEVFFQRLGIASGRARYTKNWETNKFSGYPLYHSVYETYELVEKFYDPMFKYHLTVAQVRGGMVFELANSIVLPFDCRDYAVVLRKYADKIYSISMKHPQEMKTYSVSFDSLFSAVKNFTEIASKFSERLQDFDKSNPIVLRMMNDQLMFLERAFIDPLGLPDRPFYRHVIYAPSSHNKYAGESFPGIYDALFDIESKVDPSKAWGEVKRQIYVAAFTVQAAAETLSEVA

O=C(O)CCOCCOCCNc1nc(Nc2ccc(CC3CN(CC(=O)O)CCN(CC(=O)O)CCN(CC(=O)O)CCN3CC(=O)O)cc2)nc(N2CCN(CCCCCCCCCCC(=O)NCCCC[C@H](NC(=O)N[C@@H](CCC(=O)O)C(=O)O)C(=O)O)CC2)n1 (stereo partly drawn) [complex (A), ^177Lu-complex of (2S)-2-(3-(1-carboxy-5-(11-(4-(4-((2-(2-(2-carboxyethoxy)ethoxy)ethyl)amino)-6-((4-((1,4,7,10-tetrakis(carboxymethyl)-1,4,7,10-tetraazacyclododecan-2-yl)methyl)phenyl)amino)-1,3,5-triazin-2-yl)piperazin-1-yl)undecanamido)pentyl)ureido)pentanedioic acid, metal not drawn]
concentration in kidneys compared with tumor [1]: greater in kidneys than in tumor | concentration in LNCap tumor [1]: remained unchanged | concentration in kidneys and tumor compared with other tissues [1, 4]: concentrate in kidneys and tumor to a greater extent than other tissues | clearance from the kidneys [1]: rapidly cleared from the kidneys

O=C(O)CC[C@H](NC(=O)N[C@@H](CCCCNC(=O)CCCCCCCCCCN1CCN(c2nc(Nc3ccc(CC4CN(CC(=O)O)CCN(CC(=O)O)CCN(CC(=O)O)CCN4CC(=O)O)cc3)nc(N3CCCCC3)n2)CC1)C(=O)O)C(=O)O (stereo partly drawn) [complex (B), ^177Lu-complex of (2S)-2-(3-((1S)-1-carboxy-5-(11-(4-(4-(piperidin-1-yl)-6-((4-((1,4,7,10-tetrakis(carboxymethyl)-1,4,7,10-tetraazacyclododecan-2-yl)methyl)phenyl)amino)-1,3,5-triazin-2-yl)piperazin-1-yl)undecanamido)pentyl)ureido)pentanedioic acid, metal not drawn]
concentration in kidneys compared with tumor [1]: greater in kidneys than in tumor | concentration in LNCap tumor [1]: remained unchanged | concentration in kidneys and tumor compared with other tissues [1, 4]: concentrate in kidneys and tumor to a greater extent than other tissues | clearance from the kidneys [1]: rapidly cleared from the kidneys

CN(C)c1nc(Nc2ccc(CC3CN(CC(=O)O)CCN(CC(=O)O)CCN(CC(=O)O)CCN3CC(=O)O)cc2)nc(N2CCN(CCCCCCCCCCC(=O)NCCCC[C@H](NC(=O)N[C@@H](CCC(=O)O)C(=O)O)C(=O)O)CC2)n1 (stereo partly drawn) [complex (D), ^177Lu-complex of (2S)-2-(3-((1S)-1-carboxy-5-(11-(4-(4-(dimethylamino)-6-((4-((1,4,7,10-tetrakis(carboxymethyl)-1,4,7,10-tetraazacyclododecan-2-yl)methyl)phenyl)amino)-1,3,5-triazin-2-yl)piperazin-1-yl)undecanamido)pentyl)ureido)pentanedioic acid, metal not drawn]
concentration in kidneys and tumor compared with other tissues ([1]; extended biodistribution study, shorter time intervals post administration): concentrates to a greater extent in kidneys and tumor than other tissues | intracellular concentration in LNCaP tumor cells ([1]; extended study, 1 week post administration): no appreciable change | intrarenal concentration ([1]; extended study, 1 week post administration compared with within eight hours): significantly lower | decrease in tumor concentration compared with decrease in intrarenal concentration [1, 5]: less compared to the decrease in the intrarenal concentration | intratumoral concentration [1, 5]: decrease | concentration in kidney [1, 6]: decreases | concentration in tumor [1, 6]: no observable change | concentration in kidneys and tumor as a function of time ([1]; extended study, first eight hours post administration): gradual increase | LNCaP tumor volumes compared with volume at the start of the study [2]: decrease to values lower than the tumor volume at the start of the study | tumor volumes compared with saline control group ([2]; measured twice weekly): significantly lower

^68Ga complex of (2S)-2-(3-((1S)-1-carboxy-5-(11-(4-(4-(dimethylamino)-6-((4-((1,4,7,10-tetrakis(carboxymethyl)-1,4,7,10-tetraazacyclododecan-2-yl)methyl)phenyl)amino)-1,3,5-triazin-2-yl)piperazin-1-yl)undecanamido)pentyl)ureido)pentanedioic acid [Example 17]
tissue accumulation in radiographic image ([3]; FIG. 6): accumulates in the lacrimal and salivary glands, kidney, liver, and urinary bladder | PSMA specific lesions in radiographic image ([3]; imaged at 1 hour and 3 hours post administration): detected in the lymph nodes and bone, in addition to the prostate tissue itself | imaging agent visible in bladder ([3]; visible at hour 1): cleared by the 3-hour scan

^177Lu-complex of (21S,25S)-8,15,23-trioxo-1-(4-((1,4,7,10-tetrakis(carboxymethyl)-1,4,7,10-tetraazacyclododecan-2-yl)methyl)phenylamino)-1 thioxo-2,7,16,22,24-pentaazaheptacosane-21,25,27-tricarboxylic acid [complex (C), reference compound]
concentration in kidneys compared with tumor [1]: greater in kidneys than in tumor | concentration in LNCap tumor [1]: decreases | concentration in kidneys and tumor compared with other tissues [1, 4]: concentrate in kidneys and tumor to a greater extent than other tissues
